Source: PMC8626775, “Anti-schistosomal activities of quinoxaline-containing compounds: From hit identification to lead optimisation” (European Journal of Medicinal Chemistry, 2021)
“Also recorded” adds a separate entry of the source.

Tests used:
S. mansoni adult worms = experiment: In vitro laid egg (IVLE) production by S. mansoni adult worm pairs, 72 h; type: cell-based, Schistosoma mansoni; details: 0.0024–10 μM
Experimental: For the evaluation of anti-schistosomal activity on the adult stage of the parasite, 7-wk old worms were transferred into 48 well tissue culture plates (1–3 worm pairs/well, in duplicate). […] DMSO (0.5%) and praziquantel (10 μM in 0.5% DMSO) were also included as negative and positive control treatments. Treated adult worms were incubated for 72 h in a humidified environment containing 5% CO2 at 37 °C. Parasite motility after compound treatment was assessed by a digital image processing-based system (WormassayGP2), modified after Wormassay. Following compound-parasite co-incubation, eggs were collected, fixed in formalin (10% v/v formaldehyde) and enumerated aiming to collect further information on any compound-induced effects on parasite fecundity and IVLE production.

HepG2 cells = experiment: HepG2 MTT cytotoxicity assay
Summary of the method: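 HepG2 cells seeded at 2 × 10^4 cells/well, cultured at 37 °C in 5% CO2. Viability by MTT, formazan absorbance at 570 nm. The cytotoxicity value served for computing compound selectivity index.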

[1] = tested on: Juvenile S. mansoni worms; experiment: S. mansoni juvenile worm screen (motility score, propidium iodide uptake), 72 h; type: cell-based, Schistosoma mansoni; details: for EC50: 3 week juvenile S. mansoni; for PI pos: juvenile worms, Fig. S4
From the text: Mice (Mus musculus HsdOLa:TO - Tuck Ordinary; Envigo, UK) were used for the mammalian-specific propagation of the S. mansoni life cycle. Experimental animals were infected with 4000 or 180 S. mansoni cercariae/mouse and perfused three- or seven-weeks post-infection to obtain S. mansoni juvenile or adult worms, respectively. Preparation steps following perfusion have been described previously. Briefly, the parasite material was washed three times with pre-warmed adult worm media (DMEM (Gibco, Paisley, UK) supplemented with 10% (v/v) Fetal Calf Serum (FCS, Gibco, Paisley, UK), 1% (v/v) L-glutamine (Gibco, Paisley, UK) and an antibiotic mixture (150 Units/ml penicillin and 150 μg/ml streptomycin; Gibco, UK)) to remove residual host contamination and incubated in a humidified environment containing 5% CO2 at 37 °C for at least 1 h.
Juvenile worms were distributed in a 96-well tissue culture plate (n = 20–25 individuals/well) containing 200 μl/well. Compounds were added to each treatment well at a concentration range of 10–0.156 μM. Negative (1.25% DMSO) and positive (15 μM PZQ and 15 μM AUR in 1.25% DMSO) controls were also included in each drug screen. Treated juvenile worms were incubated for 72 h in a humidified environment containing 5% CO2 at 37 °C. Compound-induced phenotype and motility effects were quantified using an adapted version of the WHO-TDR scoring system (in summary: 0 = dead, 1 = movement of the suckers only and slight contraction of the body, 2 = movement at the anterior and posterior regions only, 3 = full body movement but sluggish and 4 = normal movement). Additionally, differential uptake of propidium iodide (PI, P1304MP, Sigma-Aldrich, UK) was used to quantify worm viability as previously described. In brief, after 15 min incubation with 2 μg/ml PI, the parasite cultures were imaged under both bright-field and fluorescent settings (PI detection, 562 and 624 excitation and emission wavelengths, respectively) using an ImageXpressXL high content imager (Molecular Devices, UK). Enumeration of PI positive and negative juvenile worms was manually performed across all parasites within the well and the percentage of PI positive parasite was calculated per well.

TK6 cells = experiment: Genotoxicity assessment in TK6 cells (micronucleus, ɣH2AX, p53, cell cycle)
Experimental: The in vitro micronucleus (MN) assay was employed for the assessment of chromosome damage. Human, p53 competent, lymphoblastoid TK6 cells (Cat. No. 95111735) were used in this study and obtained from the European Collection of Authenticated Cell Cultures (ECACC)). RPMI 1640 (Gibco, Paisley, UK) culture media supplemented with 1% penicillin/streptomycin (100 U/ml Penicillin and 100 μg/ml Streptomycin), 10% heat inactivated horse serum (Gibco, Paisley, UK), 1% L-glutamine (Gibco, Paisley, UK) and hygromycine-B was used for TK6 cell culture. Cells were incubated at 37 °C in a humidified atmosphere of 5% (v/v) CO2.

| SMILES | Effect on IVLE production compared with PZQ (S. mansoni adult worms) | Toxicity on HepG2 in words (HepG2 cells; 24 h) | Selectivity Index (SI) Adult worms (HepG2 cells; HepG2 CC50 versus adult worm EC50) | Selectivity Index (SI) Somula (HepG2 cells; HepG2 CC50 versus schistosomula EC50) | EC50 ([1]; 72 h) [µM] | Concentration down to which parasite death of juvenile worms was induced ([1]; 72 h, supported by propidium iodide staining) [µM] | EC50 ([1]; Schistosoma mansoni, 72 h) [µM] | PI pos ([1]; 0.156 µM) [%] | PI pos ([1]; 0.312 µM) [%] | PI pos ([1]; 0.625 µM) [%] | PI pos ([1]; 1.25 µM) [%] | PI pos ([1]; 2.50 µM) [%] | PI pos ([1]; 5 µM) [%] | PI pos ([1]; 10 µM) [%] | Number of micronuclei (MNi) compared to DMSO treated cells (TK6 cells) | Cell-cycle analysis (TK6 cells; 2 and 4 μM) | Genotoxicity (TK6 cells; TK6 cells, 0.5, 2 and 4 μM) |
| --- | --- | --- | --- | --- | --- | --- | --- | --- | --- | --- | --- | --- | --- | --- | --- | --- | --- |
| O=[N+]([O-])c1ccc2nc(Nc3cc(C(F)(F)F)ccc3F)c(Nc3cc(C(F)(F)F)ccc3F)nc2c1 [Compound 33, N2, N3-bis(2-fluoro-5-(trifluoromethyl)phenyl)-6-nitroquinoxaline-2,3-diamine] | more potent than PZQ | low toxicity | 17.87 | 0.66 |  |  |  |  |  |  |  |  |  |  |  |  |  |
| O=[N+]([O-])c1ccc2nc(Nc3ccc(Cl)c(Cl)c3)c(Nc3ccc(Cl)c(Cl)c3)nc2c1 [Compound 22, N^2, N^3-bis(3,4-dichlorophenyl)-6-nitroquinoxaline-2,3-diamine] |  |  |  |  | 0.201 | 1.25 | 0.2 | 0 | 10 | 20 | 100 | 100 | 100 | 100 | did not change significantly | G2/M phase arrest | non-genotoxic; also recorded: does not induce genotoxicity |
